Active and inactive are the calls of the source.
Key:
[1] = biological target: T1, Oxysterols receptor LXR-beta (Homo sapiens, UniProt P55055); type: functional, cell-based;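 further: Cell-based luminescence dose-response assay of agonist activity at LXR, run as a confirmatory counterscreen to a daf-12 agonist screen; HEK293 cells with Gal4-LXR fusion and GAL4-driven luciferase reporter; agonist potency from rising luciferase signal of a Gal4-LXR reporter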
T1 sequence (P55055 whole entry): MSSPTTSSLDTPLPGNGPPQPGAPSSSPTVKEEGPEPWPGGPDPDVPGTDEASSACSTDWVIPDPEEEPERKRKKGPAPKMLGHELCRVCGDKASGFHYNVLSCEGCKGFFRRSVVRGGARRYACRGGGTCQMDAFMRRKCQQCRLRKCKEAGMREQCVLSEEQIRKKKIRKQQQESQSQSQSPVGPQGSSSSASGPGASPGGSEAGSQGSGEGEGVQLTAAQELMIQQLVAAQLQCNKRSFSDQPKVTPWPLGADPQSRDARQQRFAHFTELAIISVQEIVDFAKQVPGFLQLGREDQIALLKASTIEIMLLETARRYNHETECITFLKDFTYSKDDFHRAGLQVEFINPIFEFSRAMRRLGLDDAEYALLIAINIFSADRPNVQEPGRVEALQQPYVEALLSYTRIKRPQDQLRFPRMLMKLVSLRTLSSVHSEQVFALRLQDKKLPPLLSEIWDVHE

[2] = biological target: T2, Zinc finger protein mex-5 (Caenorhabditis elegans, UniProt Q9XUB2); test: potency of MEX-5 RNA-binding blockers – biochemical, C. elegans, fluorescence polarization, dose response (AID 1960)
T2 sequence (Q9XUB2 whole entry): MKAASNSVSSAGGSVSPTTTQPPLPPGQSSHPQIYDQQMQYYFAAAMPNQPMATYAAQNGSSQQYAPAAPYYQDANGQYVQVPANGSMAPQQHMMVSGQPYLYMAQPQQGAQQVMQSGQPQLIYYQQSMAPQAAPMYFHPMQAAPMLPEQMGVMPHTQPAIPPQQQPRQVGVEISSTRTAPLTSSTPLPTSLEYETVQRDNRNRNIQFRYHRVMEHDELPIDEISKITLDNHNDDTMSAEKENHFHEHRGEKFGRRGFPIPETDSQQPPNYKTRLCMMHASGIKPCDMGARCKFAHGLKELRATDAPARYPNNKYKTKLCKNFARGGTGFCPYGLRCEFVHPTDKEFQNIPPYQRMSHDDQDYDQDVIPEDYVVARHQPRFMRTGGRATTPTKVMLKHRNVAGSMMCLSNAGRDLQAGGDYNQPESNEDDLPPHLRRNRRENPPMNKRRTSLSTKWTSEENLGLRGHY

Genome polyprotein = Genome polyprotein (dengue virus type 2, UniProt P29990); test: flavivirus cap methylation enzyme inhibition – biochemical, confirmation dose response, primary screen (AID 588689); type: functional
Chain of Genome polyprotein (P29990 2492-3391 limits assumed): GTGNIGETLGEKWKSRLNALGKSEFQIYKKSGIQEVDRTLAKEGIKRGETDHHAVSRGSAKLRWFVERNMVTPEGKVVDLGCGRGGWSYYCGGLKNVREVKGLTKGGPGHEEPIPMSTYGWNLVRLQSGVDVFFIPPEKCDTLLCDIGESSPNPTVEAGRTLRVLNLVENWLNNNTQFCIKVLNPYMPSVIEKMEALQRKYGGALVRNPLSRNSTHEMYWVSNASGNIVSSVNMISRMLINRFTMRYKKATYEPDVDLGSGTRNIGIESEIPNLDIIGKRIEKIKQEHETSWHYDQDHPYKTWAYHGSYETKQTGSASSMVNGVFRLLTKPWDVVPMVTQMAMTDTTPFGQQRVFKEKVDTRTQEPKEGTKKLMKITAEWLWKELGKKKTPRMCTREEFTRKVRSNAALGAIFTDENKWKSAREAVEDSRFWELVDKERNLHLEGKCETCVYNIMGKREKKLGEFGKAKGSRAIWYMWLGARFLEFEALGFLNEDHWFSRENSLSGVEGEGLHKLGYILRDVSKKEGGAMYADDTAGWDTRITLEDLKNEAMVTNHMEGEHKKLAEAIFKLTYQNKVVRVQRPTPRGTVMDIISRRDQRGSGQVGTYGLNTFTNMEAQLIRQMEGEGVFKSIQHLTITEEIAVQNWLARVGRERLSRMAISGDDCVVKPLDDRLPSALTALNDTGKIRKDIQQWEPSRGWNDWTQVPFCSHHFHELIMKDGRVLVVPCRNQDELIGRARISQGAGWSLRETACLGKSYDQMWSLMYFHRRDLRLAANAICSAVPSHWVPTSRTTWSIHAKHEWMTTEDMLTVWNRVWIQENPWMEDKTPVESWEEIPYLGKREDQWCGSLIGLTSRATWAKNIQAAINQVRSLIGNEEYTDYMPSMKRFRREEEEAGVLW

Structure (SMILES) | EC50 [1] | EC50 (cells) | EC50 [2] | IC50 (Genome polyprotein)
Oc1ccccc1/C=C/c1noc(-c2ccccc2O)n1 | > 67.6 µM (inactive) | > 67.6 µM (inactive) | – | –
O=C(O)CSc1cc(NS(=O)(=O)c2ccc(Cl)cc2)c2ccccc2c1O | – | – | 6.3 µM (active) | 7.15 µM (active)

From ChEMBL document CHEMBL1201862, “PubChem BioAssay data set” (2004)
